ChEMBL document CHEMBL1909046, “DrugMatrix in vitro pharmacology data”

Assays:
[1] = molecular target: T1, Cytochrome P450 1A2 (Homo sapiens, UniProt P05177)
T1 sequence (P05177 whole entry): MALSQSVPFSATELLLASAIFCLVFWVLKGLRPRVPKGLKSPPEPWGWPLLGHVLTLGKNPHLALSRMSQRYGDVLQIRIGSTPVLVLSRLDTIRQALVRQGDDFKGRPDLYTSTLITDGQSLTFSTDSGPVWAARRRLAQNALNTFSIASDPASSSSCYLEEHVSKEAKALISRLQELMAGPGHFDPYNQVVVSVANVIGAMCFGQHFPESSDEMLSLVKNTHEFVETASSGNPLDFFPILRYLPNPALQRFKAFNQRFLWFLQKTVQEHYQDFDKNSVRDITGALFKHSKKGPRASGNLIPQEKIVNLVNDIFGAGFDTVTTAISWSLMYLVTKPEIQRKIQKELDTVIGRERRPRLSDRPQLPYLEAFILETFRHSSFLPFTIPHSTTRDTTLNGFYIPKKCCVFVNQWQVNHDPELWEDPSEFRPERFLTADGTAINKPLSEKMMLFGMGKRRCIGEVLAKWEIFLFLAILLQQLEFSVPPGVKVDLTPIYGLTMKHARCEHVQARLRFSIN

[2] = molecular target: Cytochrome P450 3A4 (Homo sapiens, UniProt P08684)
[3] = molecular target: T2, Androgen receptor (Rattus norvegicus, UniProt P15207)
T2 sequence (P15207 whole entry): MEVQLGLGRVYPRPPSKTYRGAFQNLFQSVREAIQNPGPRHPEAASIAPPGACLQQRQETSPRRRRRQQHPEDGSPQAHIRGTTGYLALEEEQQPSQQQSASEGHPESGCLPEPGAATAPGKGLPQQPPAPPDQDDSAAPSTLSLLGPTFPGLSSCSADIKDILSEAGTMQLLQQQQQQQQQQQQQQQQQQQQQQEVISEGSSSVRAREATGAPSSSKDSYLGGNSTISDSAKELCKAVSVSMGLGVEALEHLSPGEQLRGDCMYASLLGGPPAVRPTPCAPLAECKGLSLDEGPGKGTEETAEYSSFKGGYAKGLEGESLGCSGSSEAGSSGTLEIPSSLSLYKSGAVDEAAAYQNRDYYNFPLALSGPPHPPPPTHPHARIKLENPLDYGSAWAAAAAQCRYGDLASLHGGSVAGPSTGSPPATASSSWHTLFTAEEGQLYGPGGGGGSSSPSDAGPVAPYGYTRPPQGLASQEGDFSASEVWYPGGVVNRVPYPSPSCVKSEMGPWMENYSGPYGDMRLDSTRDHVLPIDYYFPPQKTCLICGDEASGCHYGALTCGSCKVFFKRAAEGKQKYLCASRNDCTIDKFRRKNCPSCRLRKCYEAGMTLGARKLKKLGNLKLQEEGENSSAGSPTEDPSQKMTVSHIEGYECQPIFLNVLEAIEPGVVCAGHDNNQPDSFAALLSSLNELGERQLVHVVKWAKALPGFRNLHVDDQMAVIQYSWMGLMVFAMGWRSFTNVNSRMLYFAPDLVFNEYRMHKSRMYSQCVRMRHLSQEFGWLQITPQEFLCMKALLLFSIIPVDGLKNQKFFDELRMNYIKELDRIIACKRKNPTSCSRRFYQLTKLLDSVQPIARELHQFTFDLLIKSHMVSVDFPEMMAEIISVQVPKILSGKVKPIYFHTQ

[4] = molecular target: T3, Glucocorticoid receptor (Homo sapiens, UniProt P04150); experiment: biochemical
T3 sequence (P04150 whole entry): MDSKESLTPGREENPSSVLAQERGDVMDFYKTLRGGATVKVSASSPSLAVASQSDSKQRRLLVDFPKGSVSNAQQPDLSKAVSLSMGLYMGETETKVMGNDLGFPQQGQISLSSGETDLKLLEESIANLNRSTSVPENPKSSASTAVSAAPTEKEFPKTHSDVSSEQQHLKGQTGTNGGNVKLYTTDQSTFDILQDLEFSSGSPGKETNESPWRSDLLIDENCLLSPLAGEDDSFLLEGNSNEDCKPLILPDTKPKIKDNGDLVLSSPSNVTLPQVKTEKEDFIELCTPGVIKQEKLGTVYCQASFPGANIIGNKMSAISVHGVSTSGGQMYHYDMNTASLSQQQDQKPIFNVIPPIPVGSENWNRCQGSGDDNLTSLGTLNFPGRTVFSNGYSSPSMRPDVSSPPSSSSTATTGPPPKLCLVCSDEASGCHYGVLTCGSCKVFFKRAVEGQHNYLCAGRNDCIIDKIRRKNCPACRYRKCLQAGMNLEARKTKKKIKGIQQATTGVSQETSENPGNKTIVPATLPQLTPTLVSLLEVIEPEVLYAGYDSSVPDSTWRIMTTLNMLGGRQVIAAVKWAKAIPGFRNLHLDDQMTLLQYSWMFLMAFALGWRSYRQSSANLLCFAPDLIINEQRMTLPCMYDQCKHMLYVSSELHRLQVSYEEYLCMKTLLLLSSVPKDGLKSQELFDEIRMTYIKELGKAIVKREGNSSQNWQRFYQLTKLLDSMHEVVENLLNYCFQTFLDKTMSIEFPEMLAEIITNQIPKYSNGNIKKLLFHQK

Cytochrome P450 3A4, sequence (P08684 whole entry): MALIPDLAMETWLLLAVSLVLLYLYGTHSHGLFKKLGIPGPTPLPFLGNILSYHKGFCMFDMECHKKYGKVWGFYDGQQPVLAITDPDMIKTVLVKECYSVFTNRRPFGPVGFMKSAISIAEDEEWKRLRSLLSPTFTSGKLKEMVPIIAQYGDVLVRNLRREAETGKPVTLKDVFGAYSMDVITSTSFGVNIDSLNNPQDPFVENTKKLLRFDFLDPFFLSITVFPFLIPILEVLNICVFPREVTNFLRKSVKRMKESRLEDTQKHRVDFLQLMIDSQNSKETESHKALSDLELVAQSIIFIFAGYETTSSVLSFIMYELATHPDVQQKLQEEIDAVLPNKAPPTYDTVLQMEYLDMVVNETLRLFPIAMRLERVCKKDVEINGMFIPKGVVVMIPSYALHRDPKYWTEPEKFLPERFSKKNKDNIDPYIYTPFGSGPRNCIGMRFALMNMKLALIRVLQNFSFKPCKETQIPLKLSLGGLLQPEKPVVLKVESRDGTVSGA

Question: For `Cc1ccc2cc3c(ccc4ccccc43)c3c2c1CC3` [3-METHYLCHOLANTHRENE], which IC50 [1] is on record?
Answer: The IC50 was 300 nM.

Question: Which IC50 [1] does the source give for `c1ccc2c(c1)c1cccc3ccc4cccc2c4c31` [BENZO[E]PYRENE] here?
Answer: Its IC50 is 100 nM.

Question: For `CC(C)[C@H]1C(=O)N2CCC[C@H]2[C@]2(O)O[C@](NC(=O)[C@@H]3C=C4c5cccc6[nH]cc(c56)C[C@H]4N(C)C3)(C(C)C)C(=O)N12` [ERGOCORNINE], which IC50 [2] is on record?
Answer: Its IC50 is 500 nM.

Question: Which results are given for `C[C@]12CC[C@@H]3c4ccc(O)cc4CC[C@H]3[C@@H]1CCC2=O` [ESTRONE]?
Answer: IC50 [3]: 11600 nM; Ki [3]: 7740 nM

Question: With `C[C@]12CCC(=O)C=C1CC[C@@H]1[C@@H]2CC[C@@]2(C)[C@H]1CC[C@]2(C)O` [METHYLTESTOSTERONE] as the compound, how does the IC50 [4] read?
Answer: Its IC50 is 1840 nM.

Question: What about the Ki [4] of the same compound?
Answer: The Ki was 838 nM.
